Measurements as given in patent US12156893B2, “Oral composition comprising lactic acid bacteria for regulating immune responses and methods related thereto” (The Regents of the University of California, priority 2016, dated 2024).

Legend:
Type in all cases: cell-based, human
OSCSCs = test: Chemotherapy-induced cell death of NK-differentiated OSCSCs; details: OSCSCs differentiated with NK supernatants
MP2 tumors = test: Chemotherapy-induced cell death of MP2 tumors; details: for Cell death of NK-differentiated MP2: MP2 differentiated with NK-supernatants
PL12 or Capan = test: NAC-induced cell death of well-differentiated pancreatic tumors; details: NAC added to well-differentiated PL12 or Capan
NK cells = test: Production of cytokines, growth factors and chemokines by NK cells treated with bacterial strains (Bio-Plex 27-plex); set-up: unit not given here
Experimental: Different strains of probiotic bacteria were tested for their ability to induce IFN-g as well as a number of important cytokines, chemokines and growth factors (Table 1). To assess the levels of each strain used in the combination we used an activation index established in the lab for the NK cells which consisted of the use of a specific ratio of several important cytokines and chemokines that prevented auto-immunity while enhancing significant activation of NK cells under pathologic conditions. Therefore, the strains were selected to: 1) provide regulated activation of NK cells when no activation of NK cells is desired; 2) when activated by cytokines and/or cross-linking of the important receptors which occurs during functional activation of NK cells in cancer is to induce maximal activation of NK cells; and 3) provide diversity for gut microflora. These criteria allow us to use bacteria to regulate the gut mucosal immunity in such a way that we will only increase NK activation when needed during infections or malignancies. In other words when there is no need for function of NK cells bacteria will regulate NK function to not induce inflammation; however, during need which occurs under the pathological conditions NK cells are triggered to function at the maximal levels. Such coordinated regulation of NK cell function should be effective in halting unwanted inflammation while providing effective and maximal immunity during disease.
Written informed consents, approved by UCLA Institutional Review Board (IRB), were obtained from healthy blood donors, and all procedures were approved by the UCLA-IRB. Peripheral blood was separated using Ficoll-Hypaque centrifugation, after which the white, cloudy layer, containing peripheral blood mononuclear cells (PBMC), was harvested, washed and re-suspended in RPMI 1640 (Invitrogen by Life Technologies, CA) supplemented with 10% FBS and plated on plastic tissue culture dishes. After 1-2 hours of incubation, non-adherent, human peripheral blood lymphocytes (PBL) were collected. NK cells were negatively selected and isolated from PBLs using the EasySep® Human NK cell enrichment kit purchased from Stem Cell Technologies (Vancouver, BC, Canada). Isolated NK cells were stained with anti-CD16 antibody, to measure NK cell purity using flow cytometric analysis. The isolated NK cell population was greater than 90% purity. Purified NK cells were cultured in RPMI Medium 1640 supplemented with 10% FBS (Gemini Bio-Products, CA), 1% antibiotic antimycotic, 1% sodium pyruvate, and 1% MEM non-essential amino acids (Invitrogen, Life Technologies, CA).
Purified NK cells from healthy donors were left untreated or treated with IL-2 (1000 units/ml) or the combination of anti-CD16 mAb (3 μg/ml) and IL-2 (1000 units/ml) in the presence or absence of bacterial strains at 1:5 ratio (NK cell: bacteria) for 12-18 hours. Afterwards, the levels of cytokines, growth factors and chemokines were determined using Bio-Plex Pro Human Cytokine 27-plex Assay Kit.

[1] = Treatment NK (no activation), bacteria 1:5 NK cell:bacteria, 12-18 hours
[2] = Treatment NK + IL-2 (1000 units/ml), bacteria 1:5, 12-18 hours
[3] = Treatment NK + IL-2 + anti-CD16 mAb (3 μg/ml), bacteria 1:5, 12-18 hours

`[NH2][Pt]([NH2])([Cl])[Cl]` [CDDP, Cisplatin] was tested, and the “Cell death of NK-differentiated OSCSCs” value (OSCSCs) was “significant susceptibility” and the “Cell death of NK-differentiated MP2” value (MP2 tumors) was “significant susceptibility”.
`CC(=O)N[C@@H](CS)C(=O)O` [NAC, N-acetylcysteine] was tested, and the “Cell death of NK-differentiated OSCSCs” value (OSCSCs) was “significantly increased Paclitaxel-mediated cell death”, the Cell death (PL12 or Capan) was “greater levels of cell death” and the Cell death (MP2 tumors; NAC added to poorly-differentiated MP2) was “lower/slight effect on cell death”.
For `CC(=O)O[C@H]1C(=O)[C@@]2(C)[C@H]([C@H](OC(=O)c3ccccc3)[C@]3(O)C[C@H](OC(=O)[C@H](O)[C@@H](NC(=O)c4ccccc4)c4ccccc4)C(C)=C1C3(C)C)[C@]1(OC(C)=O)CO[C@@H]1C[C@@H]2O` [Paclitaxel], the “Cell death of NK-differentiated OSCSCs” value (OSCSCs) was “higher cell death” and the “Cell death of NK-differentiated MP2” value (MP2 tumors) was “significant susceptibility”.
Lactobacillus plantarum [L. plantarum] was tested, and the Eotaxin (NK cells; [1]) was 36, the G-CSF (NK cells; [1]) was 236 and the GM-CSF (NK cells; [1]) was 122. For the same compound, the IFN-γ (NK cells; [1]) was 282, the IL-1B (NK cells; [1]) was 645 and the IL-1ra (NK cells; [1]) was 323. It also gave an IL-6 (NK cells; [1]) of 9500, an IL-8 (NK cells; [1]) of 17756 and an IL-10 (NK cells; [1]) of 85. The IL-12p70 (NK cells; [1]) was 130, the IL-13 (NK cells; [1]) was 8 and the IL-17 (NK cells; [1]) was 78. For the same compound, the IP-10 (NK cells; [1]) was 140, the MCP-1 (NK cells; [1]) was 958 and the RANTES (NK cells; [1]) was 22609. It also gave a TNF-α (NK cells; [1]) of 13887, an Eotaxin (NK cells; [2]) of 36 and a G-CSF (NK cells; [2]) of 129. The GM-CSF (NK cells; [2]) was 181, the IFN-γ (NK cells; [2]) was 5484 and the IL-1B (NK cells; [2]) was 466. For the same compound, the IL-1ra (NK cells; [2]) was 500, the IL-6 (NK cells; [2]) was 4212 and the IL-8 (NK cells; [2]) was 3415. It also gave an IL-10 (NK cells; [2]) of 43, an IL-12p70 (NK cells; [2]) of 184 and an IL-13 (NK cells; [2]) of 14. For the same compound, the IL-17 (NK cells; [2]) was 73, the IP-10 (NK cells; [2]) was 115 and the MCP-1 (NK cells; [2]) was 427. For the same compound, the RANTES (NK cells; [2]) was 1923, the TNF-α (NK cells; [2]) was 9223 and the Eotaxin (NK cells; [3]) was 40. It also gave a G-CSF (NK cells; [3]) of 125, a GM-CSF (NK cells; [3]) of 216 and an IFN-γ (NK cells; [3]) of 3087. It also gave an IL-1B (NK cells; [3]) of 714, an IL-1ra (NK cells; [3]) of 575 and an IL-6 (NK cells; [3]) of 3679. It also gave an IL-8 (NK cells; [3]) of 3247, an IL-10 (NK cells; [3]) of 37 and an IL-12p70 (NK cells; [3]) of 155. The IL-13 (NK cells; [3]) was 20, the IL-17 (NK cells; [3]) was 78 and the IP-10 (NK cells; [3]) was 92. It also gave an MCP-1 (NK cells; [3]) of 335, an RANTES (NK cells; [3]) of 4147 and a TNF-α (NK cells; [3]) of 7942.
“Streptococcus thermophilus [S. thermophilus]” showed an Eotaxin (NK cells; [1]) of 40, a G-CSF (NK cells; [1]) of 149 and a GM-CSF (NK cells; [1]) of 131. For the same compound, the IFN-γ (NK cells; [1]) was 785, the IL-1B (NK cells; [1]) was 1381 and the IL-1ra (NK cells; [1]) was 229. It also gave an IL-6 (NK cells; [1]) of 10222, an IL-8 (NK cells; [1]) of 3326 and an IL-10 (NK cells; [1]) of 63. It also gave an IL-12p70 (NK cells; [1]) of 515, an IL-13 (NK cells; [1]) of 9 and an IL-17 (NK cells; [1]) of 74. It also gave an IP-10 (NK cells; [1]) of 64, an MCP-1 (NK cells; [1]) of 502 and an RANTES (NK cells; [1]) of 2580. The TNF-α (NK cells; [1]) was 18892, the Eotaxin (NK cells; [2]) was 21 and the G-CSF (NK cells; [2]) was 87. For the same compound, the GM-CSF (NK cells; [2]) was 124, the IFN-γ (NK cells; [2]) was 1188 and the IL-1B (NK cells; [2]) was 390. The IL-1ra (NK cells; [2]) was 465, the IL-6 (NK cells; [2]) was 1773 and the IL-8 (NK cells; [2]) was 1341. For the same compound, the IL-10 (NK cells; [2]) was 17, the IL-12p70 (NK cells; [2]) was 132 and the IL-13 (NK cells; [2]) was 9. The IL-17 (NK cells; [2]) was 65, the IP-10 (NK cells; [2]) was 45 and the MCP-1 (NK cells; [2]) was 169. For the same compound, the RANTES (NK cells; [2]) was 2197, the TNF-α (NK cells; [2]) was 2413 and the Eotaxin (NK cells; [3]) was 29. The G-CSF (NK cells; [3]) was 101, the GM-CSF (NK cells; [3]) was 177 and the IFN-γ (NK cells; [3]) was 2594. It also gave an IL-1B (NK cells; [3]) of 642, an IL-1ra (NK cells; [3]) of 434 and an IL-6 (NK cells; [3]) of 2475. The IL-8 (NK cells; [3]) was 1841, the IL-10 (NK cells; [3]) was 23 and the IL-12p70 (NK cells; [3]) was 163. It also gave an IL-13 (NK cells; [3]) of 15, an IL-17 (NK cells; [3]) of 57 and an IP-10 (NK cells; [3]) of 58. The MCP-1 (NK cells; [3]) was 332, the RANTES (NK cells; [3]) was 2097 and the TNF-α (NK cells; [3]) was 4917.
